Experimental data: EPA's ToxRefDB 2

Legend:
mouse [1] = details: Carcinogenicity; b6c3f1; Oral; Feed; dose end: 78 week; group: systemic; systemic / in life observation / body weight / body weight + systemic / pathology microscopic / liver / cytoplasmic alteration + systemic / …
rat [2] = details: Carcinogenicity, fischer, Oral, Feed, dose end: 59 week, group: systemic
rat [3] = details: Sub-acute repeat dose toxicity; fischer; Oral; Feed; dose end: 4 week; group: systemic; systemic / in life observation / body weight / body weight gain
rat [4] = details: Subchronic oral toxicity in rodents, fischer, Feed, dose end: 13 week
mouse [5] = details: Carcinogenicity, b6c3f1, Oral, Feed, dose end: 2 year, group: systemic
rat [6] = details: Combined chronic toxicity/carcinogenicity, fischer, Oral, Feed, dose end: 2 year, group: systemic
rat [7] = details: Multigenerational reproductive toxicity study, sprague dawley, Oral, Gavage/Intubation, dose end: 2 generation
rat [8] = details: Multigenerational reproductive toxicity study, other, Oral, Gavage/Intubation, dose end: 2 generation
mouse [9] = details: Subchronic oral toxicity in rodents, b6c3f1, Feed, dose end: 13 week, group: systemic
rat [10] = details: Subchronic oral toxicity in rodents, fischer, Feed, dose end: 13 week, group: systemic
mouse [11] = details: Subchronic oral toxicity in rodents, b6c3f1, Feed, dose end: 13 week, group: systemic, systemic / in life observation / body weight / body weight gain
rat [12] = details: Prenatal developmental toxicity study, sprague dawley, Inhalation, Whole-Body, dose end: 15 GD, group: maternal
rat [13] = details: Subchronic inhalation toxicity, fischer, Whole-Body, dose end: 14 week, group: systemic
rat [14] = details: Acute inhalation toxicity, fischer, Whole-Body, dose end: 2 week, group: systemic
rat [15] = details: Prenatal developmental toxicity study, sprague dawley, Inhalation, Whole-Body, dose end: 15 GD, group: maternal; remark: listed apart in the source
rat [16] = details: Chronic toxicity, fischer, Oral, Feed, dose end: 104 week, group: systemic
rat [17] = details: Peri- and post-natal toxicity study (Segment III), sprague dawley, Oral, Gavage/Intubation, dose end: 54 PND
rat [18] = details: Developmental neurotoxicity study; sprague dawley; Oral; Gavage/Intubation; dose end: 125 PND; group: cannot be grouped; systemic / in life observation / body weight / offspring (pup) weight
rat [19] = details: Developmental neurotoxicity study; sprague dawley; Oral; Feed; dose end: 48 PND; group: cannot be grouped; developmental / developmental landmark / eye opening / eye opening + reproductive / offspring survival early / litter size / litter size + …
mouse [20] = details: Carcinogenicity; other; Oral; Water; dose end: 36 week; group: systemic; systemic / pathology microscopic / liver / adenoma + systemic / organ weight / liver / absolute + systemic / organ weight / liver / relative…
mouse [21] = details: Carcinogenicity; b6c3f1; Oral; Feed; dose end: 78 week; group: systemic; systemic / in life observation / body weight / body weight
[22] = systemic / in life observation / body weight / body weight
[23] = group: maternal, reproductive / reproductive performance / estrous cycle / abnormal
[24] = group: systemic, systemic / hematology / erythrocyte (rbc) count differential / erythrocyte (rbc) + systemic / hematology / hematocrit (hct) / hematocrit (…
[25] = group: systemic, systemic / pathology microscopic / kidney / nephropathy + systemic / pathology microscopic / spleen / congestion + systemic / pathology …
[26] = systemic / pathology microscopic / lung / bronchiolization
[27] = systemic / pathology microscopic / kidney / hyaline droplet + systemic / pathology microscopic / kidney / pigmentation
[28] = group: offspring, systemic / in life observation / body weight / offspring (pup) weight + systemic / organ weight / brain / absolute + developmental / …
[29] = group: parental, systemic / in life observation / body weight / body weight + systemic / in life observation / clinical signs / drooping eyelids (ptosis) + …
[30] = group: parental, systemic / in life observation / clinical signs / salivation + systemic / organ weight / kidney / relative to body weight + systemic / organ…
[31] = group: reproductive, reproductive / reproductive performance / gestational length / gestational length + reproductive / reproductive performance / implantations…
[32] = group: reproductive, reproductive / reproductive performance / implantations / implantations
[33] = group: offspring, developmental / offspring survival late / viability index / viability index + developmental / developmental landmark / anogenital distance (…
[34] = group: parental, systemic / clinical chemistry / thyroxine (t4) / thyroxine (t4), total + systemic / organ weight / kidney / absolute + systemic / organ …
[35] = group: parental, systemic / organ weight / liver / absolute + systemic / organ weight / liver / relative to body weight + systemic / organ weight / kidney / …
[36] = systemic / in life observation / body weight / body weight gain
[37] = systemic / organ weight / liver / relative to body weight
[38] = systemic / in life observation / body weight / body weight gain + systemic / pathology microscopic / bone marrow / depletion + systemic / …
[39] = systemic / in life observation / body weight / body weight gain + systemic / pathology microscopic / bone marrow / hyperplasia + systemic / …
[40] = systemic / in life observation / body weight / body weight + systemic / in life observation / body weight / body weight gain + systemic / in…
[41] = systemic / pathology microscopic / nose / hyperplasia + systemic / pathology microscopic / nose / hypertrophy + systemic / pathology …
[42] = systemic / in life observation / body weight / body weight + systemic / in life observation / clinical signs / body temperature + systemic…
[43] = systemic / organ weight / liver / relative to body weight + systemic / pathology gross / liver / discolored + systemic / pathology gross / …
[44] = group: developmental, developmental / developmental landmark / vaginal opening / vaginal opening + developmental / developmental landmark / preputial separation…
[45] = group: parental, systemic / in life observation / clinical signs / ataxia + systemic / in life observation / clinical signs / prostration + systemic / organ …
[46] = group: parental, systemic / organ weight / adrenal gland / absolute + systemic / organ weight / liver / absolute

CN(C)c1ccc(Cc2ccc(N(C)C)cc2)cc1 [4,4'-Methylenebis(N,N-dimethylaniline)]
LEL (mouse [1]): 188 mg/kg/day | LOAEL (mouse [1]): 188 mg/kg/day | NEL (mouse [1]): < 188 mg/kg/day | NOAEL (mouse [1]): < 188 mg/kg/day | LEL (rat [2]; [22]): 18.8 mg/kg/day | LOAEL (rat [2]; [22]): 37.5 mg/kg/day | NEL (rat [2]; [22]): < 18.8 mg/kg/day | NOAEL (rat [2]; systemic / in life observation / body weight / body weight + systemic / pathology microscopic / thyroid gland / adenoma + systemic / …): 18.8 mg/kg/day | LEL (rat [3]): 7.25 mg/kg/day | LOAEL (rat [3]): 34 mg/kg/day | NEL (rat [3]): < 7.25 mg/kg/day | NOAEL (rat [3]): 15.8 mg/kg/day

Cc1ccc([N+](=O)[O-])cc1 [4-Nitrotoluene]
LEL (rat [4]; [23]): 680 mg/kg/day | LOAEL (rat [4]; [23]): > 680 mg/kg/day | NEL (rat [4]; [23]): 335 mg/kg/day | NOAEL (rat [4]; [23]): ≥ 680 mg/kg/day | LOAEL (rat [4]; [24]): 335 mg/kg/day | NOAEL (rat [4]; [24]): 164 mg/kg/day | LEL (rat [4]; [25]): 42 mg/kg/day | NEL (rat [4]; [25]): < 42 mg/kg/day | LOAEL (mouse [5]; [22]): 345 mg/kg/day | NOAEL (mouse [5]; systemic / in life observation / body weight / body weight + systemic / pathology microscopic / lung / adenoma/carcinoma combined + systemic…): 170 mg/kg/day | LEL (mouse [5]; [26]): 155 mg/kg/day | NEL (mouse [5]; [26]): < 155 mg/kg/day | LEL (rat [6]; [27]): 55 mg/kg/day | NEL (rat [6]; [27]): < 55 mg/kg/day | LOAEL (rat [6]; systemic / pathology microscopic / spleen / hematopoietic cell proliferation + systemic / pathology microscopic / spleen / pigmentation): 110 mg/kg/day | NOAEL (rat [6]; systemic / pathology microscopic / spleen / hematopoietic cell proliferation + systemic / pathology microscopic / spleen / pigmentation + …): 55 mg/kg/day | NEL (rat [7]; group: offspring, systemic / in life observation / body weight / offspring (pup) weight + developmental / offspring survival late / viability index / …): 40 mg/kg/day | LEL (rat [7]; group: offspring, systemic / in life observation / body weight / offspring (pup) weight + systemic / organ weight / brain / absolute): 80 mg/kg/day | LOAEL (rat [7]; [28]): > 160 mg/kg/day | NOAEL (rat [7]; [28]): ≥ 160 mg/kg/day | LOAEL (rat [7]; [29]): > 160 mg/kg/day | NOAEL (rat [7]; [29]): ≥ 160 mg/kg/day | LEL (rat [7]; [30]): 40 mg/kg/day | NEL (rat [7]; [30]): < 40 mg/kg/day | LOAEL (rat [7]; [31]): > 160 mg/kg/day | NOAEL (rat [7]; [31]): ≥ 160 mg/kg/day | LEL (rat [7]; [32]): 40 mg/kg/day | NEL (rat [7]; [32]): < 40 mg/kg/day | LOAEL (rat [8]; [33]): 160 mg/kg/day | NEL (rat [8]; [33]): 40 mg/kg/day | NOAEL (rat [8]; group: offspring, developmental / offspring survival late / viability index / viability index + systemic / organ weight / brain / absolute): 80 mg/kg/day | LEL (rat [8]; group: offspring, systemic / organ weight / brain / absolute): 80 mg/kg/day | LOAEL (rat [8]; [34]): > 160 mg/kg/day | NOAEL (rat [8]; [34]): ≥ 160 mg/kg/day | LEL (rat [8]; [35]): 40 mg/kg/day | NEL (rat [8]; [35]): < 40 mg/kg/day | LOAEL (mouse [9]; [36]): 813 mg/kg/day | NOAEL (mouse [9]; systemic / in life observation / body weight / body weight gain + systemic / in life observation / food consumption / food consumption + …): 439 mg/kg/day | LEL (mouse [9]; [37]): 131 mg/kg/day | NEL (mouse [9]; [37]): < 131 mg/kg/day

O=C1O[C@H]([C@@H](O)CO)C(O)=C1O [L-Ascorbic acid]
LOAEL (rat [10]; [38]): 5000 mg/kg/day | NOAEL (rat [10]; [38]): 2500 mg/kg/day | LEL (rat [10]; [39]): 1250 mg/kg/day | NEL (rat [10]; [39]): < 1250 mg/kg/day | LEL (mouse [11]): 7500 mg/kg/day | LOAEL (mouse [11]): 7500 mg/kg/day | NEL (mouse [11]): 3750 mg/kg/day | NOAEL (mouse [11]): 3750 mg/kg/day

CCN(CC)CCO [N,N-Diethylethanolamine]
LOAEL (rat [12]; [40]): > 100 ppm | NEL (rat [12]; [40]): 33 ppm | NOAEL (rat [12]; [40]): ≥ 100 ppm | LEL (rat [12]; systemic / in life observation / body weight / body weight gain + systemic / in life observation / food consumption / food consumption): 66 ppm | NEL (rat [13]; [41]): 10 ppm | NOAEL (rat [13]; [41]): 10 ppm | LOAEL (rat [13]; systemic / pathology microscopic / nose / hyperplasia + systemic / pathology microscopic / nose / infiltration cellular): 25 ppm | LEL (rat [13]; systemic / pathology microscopic / nose / hyperplasia + systemic / pathology microscopic / nose / infiltration cellular + systemic / …): 25 ppm | LOAEL (rat [14]; [42]): > 300 ppm | NEL (rat [14]; [42]): 10 ppm | NOAEL (rat [14]; [42]): ≥ 300 ppm | LEL (rat [14]; systemic / pathology microscopic / nose / infiltration cellular + systemic / pathology microscopic / nose / metaplasia): 55 ppm | LOAEL (rat [15]; [40]): > 200 ppm | NEL (rat [15]; [40]): 10 ppm | NOAEL (rat [15]; [40]): ≥ 200 ppm | LEL (rat [15]; [36]): 50 ppm

CCC1(c2ccccc2)C(=O)NC(=O)NC1=O [Phenobarbital]
LOAEL (rat [16]; [43]): > 19 mg/kg/day | NEL (rat [16]; [43]): 1.1 mg/kg/day | NOAEL (rat [16]; [43]): ≥ 19 mg/kg/day | LEL (rat [16]; systemic / organ weight / liver / relative to body weight + systemic / pathology gross / liver / mass + systemic / pathology microscopic / …): 4.6 mg/kg/day | NEL (rat [17]; group: developmental, developmental / developmental landmark / vaginal opening / vaginal opening): 50 mg/kg/day | LEL (rat [17]; [44]): 100 mg/kg/day | LOAEL (rat [17]; [44]): > 100 mg/kg/day | NOAEL (rat [17]; [44]): ≥ 100 mg/kg/day | LOAEL (rat [17]; [45]): > 100 mg/kg/day | NOAEL (rat [17]; [45]): ≥ 100 mg/kg/day | LEL (rat [17]; [46]): 25 mg/kg/day | NEL (rat [17]; [46]): < 25 mg/kg/day | LEL (rat [18]): 40 mg/kg/day | LOAEL (rat [18]): > 80 mg/kg/day | NEL (rat [18]): < 40 mg/kg/day | NOAEL (rat [18]): ≥ 80 mg/kg/day | LEL (rat [19]): 37.5 mg/kg/day | LOAEL (rat [19]): > 37.5 mg/kg/day | NEL (rat [19]): < 37.5 mg/kg/day | NOAEL (rat [19]): ≥ 37.5 mg/kg/day | LEL (mouse [20]): 75 mg/kg/day | LOAEL (mouse [20]): > 75 mg/kg/day | NEL (mouse [20]): < 75 mg/kg/day | NOAEL (mouse [20]): ≥ 75 mg/kg/day

N[C@@H](Cc1c[nH]c2ccccc12)C(=O)O [l-Tryptophan]
LEL (mouse [21]): 3750 mg/kg/day | LOAEL (mouse [21]): 3750 mg/kg/day | NEL (mouse [21]): < 3750 mg/kg/day | NOAEL (mouse [21]): < 3750 mg/kg/day
